# Test results: patent EP1247803A2, “Indolinone compounds suitable for modulation of protein kinases” (Sugen, Inc., priority 1996, dated 1998)
# Target: T1, FLK-1 receptor (Mus musculus, UniProt P35918)
# T1 construct: expressed in transfected cells; host or cells: NIH3T3 C7#3
# Experiment: FLK-1 ELISA (kinase activity of the FLK-1 receptor in FLK-1/NIH3T3 cells, VEGF stimulated)
# Type: cell-based
# Parameters: concentration or dose not given beside the values
# Procedure, shortened: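 FLK-1-expressing NIH3T3 C7#3 cells, starved overnight in 0.1% FBS medium, were treated with compounds at a 1:200 final dilution (0.5% DMSO) for 2 h at 37 °C, with VEGF stimulation. FLK-1 kinase activity was read by ELISA on anti-rabbit IgG plates using affinity-purified anti-FLK-1 antiserum.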
# T1 sequence (P35918 20-1345): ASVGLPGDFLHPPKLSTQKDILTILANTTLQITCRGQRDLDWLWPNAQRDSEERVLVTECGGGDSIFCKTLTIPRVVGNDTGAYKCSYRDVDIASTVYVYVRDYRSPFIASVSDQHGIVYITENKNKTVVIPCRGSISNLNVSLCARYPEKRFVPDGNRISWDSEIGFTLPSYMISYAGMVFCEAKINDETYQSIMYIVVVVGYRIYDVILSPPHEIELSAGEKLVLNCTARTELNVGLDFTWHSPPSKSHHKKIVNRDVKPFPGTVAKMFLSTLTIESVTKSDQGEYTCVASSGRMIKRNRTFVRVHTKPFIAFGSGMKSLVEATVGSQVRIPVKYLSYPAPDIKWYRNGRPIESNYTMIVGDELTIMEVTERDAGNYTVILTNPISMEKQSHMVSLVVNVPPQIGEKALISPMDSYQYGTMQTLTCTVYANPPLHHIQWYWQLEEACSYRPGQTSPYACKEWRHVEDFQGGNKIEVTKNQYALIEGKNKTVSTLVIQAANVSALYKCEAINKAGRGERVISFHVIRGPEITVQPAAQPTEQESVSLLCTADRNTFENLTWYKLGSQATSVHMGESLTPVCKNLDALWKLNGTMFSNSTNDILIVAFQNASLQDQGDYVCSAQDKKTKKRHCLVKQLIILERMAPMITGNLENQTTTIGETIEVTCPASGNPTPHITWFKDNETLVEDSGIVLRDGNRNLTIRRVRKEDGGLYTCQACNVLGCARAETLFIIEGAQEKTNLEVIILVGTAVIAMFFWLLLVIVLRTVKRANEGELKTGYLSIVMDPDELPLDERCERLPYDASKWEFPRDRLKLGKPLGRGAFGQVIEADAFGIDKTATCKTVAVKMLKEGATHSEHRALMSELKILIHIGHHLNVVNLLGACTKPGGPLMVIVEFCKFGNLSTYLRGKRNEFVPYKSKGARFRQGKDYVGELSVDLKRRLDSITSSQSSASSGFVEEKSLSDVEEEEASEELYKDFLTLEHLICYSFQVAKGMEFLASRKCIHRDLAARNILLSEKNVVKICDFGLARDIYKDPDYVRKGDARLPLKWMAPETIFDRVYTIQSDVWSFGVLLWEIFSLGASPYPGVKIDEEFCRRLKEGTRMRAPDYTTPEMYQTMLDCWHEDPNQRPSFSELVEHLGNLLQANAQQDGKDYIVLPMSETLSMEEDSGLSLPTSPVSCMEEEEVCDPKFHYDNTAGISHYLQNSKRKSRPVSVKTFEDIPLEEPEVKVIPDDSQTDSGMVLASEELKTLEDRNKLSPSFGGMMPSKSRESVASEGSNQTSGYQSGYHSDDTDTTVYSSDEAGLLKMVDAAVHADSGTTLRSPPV
row,SMILES,Fik Kinase %Inhibition
1,Cc1c(Br)ccc2c1C(=Cc1cccn1-c1ccc(Cl)cc1)C(=O)N2 [10724/C09],9.3%
2,O=C1Nc2ccc(I)cc2C1=Cc1cc2ccccc2o1 [10724/B07],-1.8%
3,O=C1Nc2c(Br)cc(Br)cc2C1=Cc1ccc(N2CCOCC2)cc1 [10725/A08],-2.9%
4,Cc1c(Br)ccc2c1C(=Cc1cc3c4c(c1O)CCCN4CCC3)C(=O)N2 [10724/C05],-18.6%
5,O=C1Nc2ccc(CCCl)cc2C1=Cc1cccc(Br)c1 [10723/G10],. 3.5%
6,CNS(=O)(=O)c1ccc2c(c1)C(=Cc1cc3c4c(c1O)CCCN4CCC3)C(=O)N2 [10724/D05],-1.6%
7,O=C1Nc2c(Br)cc(Br)cc2C1=Cc1cc2ccccc2o1 [10724/A07],3.7%
8,Cn1cccc1C=C1C(=O)Nc2c(Br)cc(Br)cc21 [10717/A04],-4.5%
9,O=C1Nc2ccc(S(=O)(=O)Nc3ccc(C(F)(F)F)cc3)cc2C1=Cc1cc2ccccc2o1 [10724/E07],-3.6%
10,COc1ccc(Br)c(C=C2C(=O)Nc3ccc(I)cc32)c1O [10725/B03],4.9%
11,CCc1ccc(C=C2C(=O)Nc3c(Br)cc(Br)cc32)o1 [10724/A10],1.6%
12,O=C1Nc2ccc(S(=O)(=O)Nc3ccc(C(F)(F)F)cc3)cc2C1=Cc1cc2c3c(c1O)CCCN3CCC2 [10724/E05],13.8%
13,CC(C)c1cc(C=C2C(=O)Nc3c(Br)cc(Br)cc32)cc(C(C)C)c1O [10724/A06],-3.7%
14,O=C1Nc2ccc(S(=O)(=O)Nc3ccc(C(F)(F)F)cc3)cc2C1=Cc1ccc(O)c([N+](=O)[O-])c1 [10724/E03],10.6%
15,O=C1Nc2ccc(S(=O)(=O)N3CCOCC3)cc2C1=Cc1ccc(F)cc1 [10717/F05],3.2%
16,O=CN1CCN(c2ccc(C=C3C(=O)Nc4ccc(I)cc43)cc2)CC1 [10725/B07],24.6%
17,O=C1Nc2ccc(I)cc2C1=Cc1c[nH]cn1 [10725/B11],-42.3%
18,Cc1c(Br)ccc2c1C(=Cc1cc3ccccc3o1)C(=O)N2 [10724/C07],-1.2%
19,O=C1Nc2ccc(CCCl)cc2C1=Cc1ccc([N+](=O)[O-])c(O)c1 [10724/G04],-7.9%
20,O=C1Nc2ccc(CCCl)cc2C1=Cc1cc2ccccc2o1 [10724/G07],-1.9%
21,CCc1ccc(C=C2C(=O)Nc3ccc(Br)c(C)c32)o1 [10724/C10],-2.3%
22,COc1cc(C)cc(O)c1C=C1C(=O)Nc2c(Br)cc(Br)cc21 [10725/A06],-7.3%
23,O=C1Nc2c(Br)cc(Br)cc2C1=Cc1ccc([N+](=O)[O-])c(O)c1 [10724/A04],-15.9%
24,Cc1c(Br)cc(Br)c2c1C(=Cc1c(Br)cnn1-c1ccc(Cl)cc1)C(=O)N2 [10725/A10],-3.2%
25,O=C1Nc2ccc(S(=O)(=O)N3CCOCC3)cc2C1=Cc1c[nH]c2ccccc12 [10717/F06],8.9%
26,CNS(=O)(=O)c1ccc2c(c1)C(=Cc1sc3scc(C)c3c1C)C(=O)N2 [10724/D11],14.9%
27,O=C1Nc2ccc(S(=O)(=O)Nc3ccc(C(F)(F)F)cc3)cc2C1=Cc1ccc([N+](=O)[O-])c(O)c1 [10724/E04],55.2%

row,SMILES,Fik Kinase %Inhibition
1,Cc1csc2sc(C=C3C(=O)Nc4c(Br)cc(Br)cc43)c(C)c12 [10724/A11],12.8%
2,O=C1Nc2ccc(CCCl)cc2C1=Cc1ccc(O)c([N+](=O)[O-])c1 [10724/G03],-8.4%
3,Cc1csc2sc(C=C3C(=O)Nc4ccc(S(=O)(=O)Nc5ccc(C(F)(F)F)cc5)cc43)c(C)c12 [10724/E11],5.1%
4,O=C1Nc2ccc(I)cc2C1=Cc1sccc1Br [10725/B02],-2.8%
5,O=C1Nc2ccc(I)cc2C1=Cc1c(Br)cnn1-c1ccc(Cl)cc1 [10725/B10],5.1%
6,O=C1Nc2ccc(S(=O)(=O)N3CCOCC3)cc2C1=Cc1cccs1 [10717/F03],0.5%
7,CCc1ccc(C=C2C(=O)Nc3ccc(CCCl)cc32)o1 [10724/G10],7.0%
8,O=C1Nc2ccc(S(=O)(=O)Nc3ccc(C(F)(F)F)cc3)cc2C1=Cc1ccc[nH]1 [10717/E09],-1.1%
9,Cc1csc2sc(C=C3C(=O)Nc4ccc(CCCl)cc43)c(C)c12 [10724/G11],6.8%
10,CC(C)c1cc(C=C2C(=O)Nc3ccc(CCCl)cc32)cc(C(C)C)c1O [10724/G06],0.1%
11,O=C1Nc2ccc(I)cc2C1=Cc1ccc(N2CCOCC2)cc1 [10725/B08],-24.1%
12,O=C1Nc2ccc(CCCl)cc2C1=Cc1cccn1-c1ccc(Cl)cc1 [10724/G09],9.1%
13,O=C1Nc2c(Br)cc(Br)cc2C1=Cc1ccc(O)c([N+](=O)[O-])c1 [10724/A03],-7.8%
14,Cn1cccc1C=C1C(=O)Nc2ccc(S(=O)(=O)N3CCOCC3)cc21 [10717/F04],-0.1%
15,CC(C)(C)c1cc(C=C2C(=O)Nc3ccc(CCCl)cc32)c(O)c(C(C)(C)C)c1 [10723/G11],-4.1%
16,Cc1c(Br)cc(Br)c2c1C(=Cc1c[nH]cn1)C(=O)N2 [10725/A11],-21.9%
17,O=C1Nc2ccc(I)cc2C1=Cc1cccn1-c1ccc(Cl)cc1 [10724/B09],3.5%
18,Cc1cc(C=C2C(=O)Nc3c(Br)cc(Br)cc32)[nH]n1 [10725/A05],-13.9%
19,CNS(=O)(=O)c1ccc2c(c1)C(=Cc1ccc(O)c([N+](=O)[O-])c1)C(=O)N2 [10724/D03],0.1%
20,COc1cccc(O)c1C=C1C(=O)Nc2ccc(S(=O)(=O)Nc3ccc(C(F)(F)F)cc3)cc21 [10717/E10],4.7%
21,O=C1Nc2c(Br)cc(Br)cc2C1=Cc1sccc1Br [10725/A02],-2.0%
22,CN(C)c1ccc(C=C2C(=O)Nc3ccc(CCCl)cc32)c2ccccc12 [10724/G02],15.1%
23,CNS(=O)(=O)c1ccc2c(c1)C(=Cc1ccc([N+](=O)[O-])c(O)c1)C(=O)N2 [10724/D04],0.5%
24,Cc1c(Br)ccc2c1C(=Cc1ccc(O)c([N+](=O)[O-])c1)C(=O)N2 [10724/C03],-20.3%
25,Cc1c(Br)ccc2c1C(=Cc1ccc(N(C)C)c3ccccc13)C(=O)N2 [10724/C02],-0.3%
26,Cc1[nH]c(C=C2C(=O)Nc3ccc(S(=O)(=O)Nc4ccc(C(F)(F)F)cc4)cc32)c(Br)c1Br [10717/E11],8.9%
27,O=C1Nc2c(Br)cc(Br)cc2C1=Cc1cc2c3c(c1O)CCCN3CCC2 [10724/A05],-15.2%

row,SMILES,Fik Kinase %Inhibition
1,CNS(=O)(=O)c1ccc2c(c1)C(=Cc1cccn1-c1ccc(Cl)cc1)C(=O)N2 [10724/D09],0.9%
2,Cc1cc(C=C2C(=O)Nc3ccc(I)cc32)[nH]n1 [10725/B05],-61.0%
3,CN(C)c1ccc(C=C2C(=O)Nc3ccc(S(=O)(=O)Nc4ccc(C(F)(F)F)cc4)cc32)c2ccccc12 [10724/E02],17.7%
4,O=C1Nc2ccc(I)cc2C1=Cc1ccc(O)c([N+](=O)[O-])c1 [10724/B03],-48.9%
5,Cc1c(Br)ccc2c1C(=Cc1cc(C(C)C)c(O)c(C(C)C)c1)C(=O)N2 [10724/C06],-1.5%
6,CC(C)c1cc(C=C2C(=O)Nc3ccc(S(=O)(=O)Nc4ccc(C(F)(F)F)cc4)cc32)cc(C(C)C)c1O [10724/E06],8.3%
7,COC(=O)Cc1c(Cl)[nH]c(C=C2C(=O)Nc3ccc(I)cc32)c1C(=O)OC [10725/B09],0.4%
8,CNS(=O)(=O)c1ccc2c(c1)C(=Cc1cc(C(C)C)c(O)c(C(C)C)c1)C(=O)N2 [10724/D06],12.4%
9,O=C1Nc2c(Br)cc(Br)cc2C1=Cc1cccn1-c1ccc(Cl)cc1 [10724/A09],-5.2%
10,O=CN1CCN(c2ccc(C=C3C(=O)Nc4c(Br)cc(Br)cc43)cc2)CC1 [10725/A07],-12.3%
11,CCOc1ccccc1C=C1C(=O)Nc2ccc(S(=O)(=O)N3CCOCC3)cc21 [10717/F02],2.2%
12,Cc1c(Br)ccc2c1C(=Cc1ccc([N+](=O)[O-])c(O)c1)C(=O)N2 [10724/C04],-18.6%
13,O=C1Nc2ccc(S(=O)(=O)Nc3ccc(C(F)(F)F)cc3)cc2C1=Cc1cccn1-c1ccc(Cl)cc1 [10724/E09],14.3%
14,CN(C)c1ccc(C=C2C(=O)Nc3c(Br)cc(Br)cc32)c2ccccc12 [10724/A02],1.8%
15,COc1ccc(Br)c(C=C2C(=O)Nc3c(Br)cc(Br)cc32)c1O [10725/A03],3.6%
16,O=C1Nc2ccc(CCCl)cc2C1=Cc1cc2c3c(c1O)CCCN3CCC2 [10724/G05],-0.1%
17,CNS(=O)(=O)c1ccc2c(c1)C(=Cc1ccc(N(C)C)c3ccccc13)C(=O)N2 [10724/D02],12.4%
18,COc1cc(C)cc(O)c1C=C1C(=O)Nc2ccc(I)cc21 [10725/B06],-0.5%
19,CCc1ccc(C=C2C(=O)Nc3ccc(S(=O)(=O)Nc4ccc(C(F)(F)F)cc4)cc32)o1 [10724/E10],7.3%
20,CCc1ccc(C=C2C(=O)Nc3ccc(I)cc32)o1 [10724/B10],8.5%
21,COC(=O)Cc1c(Cl)[nH]c(C=C2C(=O)Nc3c(Br)cc(Br)c(C)c32)c1C(=O)OC [10725/A09],-13.9%
22,Cc1c(Br)ccc2c1C(=Cc1sc3scc(C)c3c1C)C(=O)N2 [10724/C11],10.3%
23,CNS(=O)(=O)c1ccc2c(c1)C(=Cc1cc3ccccc3o1)C(=O)N2 [10724/D07],-2.6%
24,CCc1ccc(C=C2C(=O)Nc3ccc(S(=O)(=O)NC)cc32)o1 [10724/D10],3.7%
25,Cc1csc2sc(C=C3C(=O)Nc4ccc(I)cc43)c(C)c12 [10724/B11],9.0%
